Source: ChEMBL document CHEMBL1201862, “PubChem BioAssay data set” (2004)
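Cultured in 96-well plates, cells were exposed to test compound for 48 hours across five concentrations. At the GI50, growth is halved.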 Activity calls are given as the source filed them. Rule as the data show it: active = GI50 up to about 1.1 µM and inactive = higher.

How the values were obtained:
Experiment in all cases: NCI anticancer screen, dose series, 48 h
SR = system: SR
EKVX = system: EKVX
U-251 = system: U-251
SW-620 = system: SW-620
IGROV-1 = system: IGROV-1
NCI-H522 = system: NCI-H522
K562 = system: K562
HCT-116 = system: HCT-116
OVCAR-8 = system: OVCAR-8
RPMI-8226 = system: RPMI-8226
SK-MEL-5 = system: SK-MEL-5
HT-29 = system: HT-29
SK-MEL-2 = system: SK-MEL-2
OVCAR-4 = system: OVCAR-4
SF-539 = system: SF-539
ACHN = system: ACHN
OVCAR-3 = system: OVCAR-3
MOLT-4 = system: MOLT-4
PC-3 = system: PC-3

| SMILES | GI50 (SR) | GI50 (EKVX) | GI50 (U-251) | GI50 (SW-620) | GI50 (IGROV-1) | GI50 (NCI-H522) | GI50 (K562) | GI50 (HCT-116) | GI50 (OVCAR-8) | GI50 (RPMI-8226) | GI50 (SK-MEL-5) | GI50 (HT-29) | GI50 (SK-MEL-2) | GI50 (OVCAR-4) | GI50 (SF-539) | GI50 (ACHN) | GI50 (OVCAR-3) | GI50 (MOLT-4) | GI50 (PC-3) |
| --- | --- | --- | --- | --- | --- | --- | --- | --- | --- | --- | --- | --- | --- | --- | --- | --- | --- | --- | --- |
| CCCCc1ccc(Nc2nc(O)c3ncn(COCCO)c3n2)cc1 | 88.3 µM (inactive) | > 100 µM (inactive) | 57.4 µM (inactive) | > 100 µM (inactive) | > 100 µM (inactive) | > 100 µM (inactive) | 29.8 µM (inactive) | > 100 µM (inactive) | > 100 µM (inactive) | 43.9 µM (inactive) | > 100 µM (inactive) | > 100 µM (inactive) | > 100 µM (inactive) | > 100 µM (inactive) | > 100 µM (inactive) | > 100 µM (inactive) | > 100 µM (inactive) | 56 µM (inactive) | – |
| C1=CN2C[n+]3cccc(OCc4ccccc4)c3N=C2C(OCc2ccccc2)=C1 | – | 24.2 µM (inactive) | 4.51 µM (inactive) | 11.9 µM (inactive) | 11.5 µM (inactive) | 2.65 µM (inactive) | < 0.01 µM (active) | 23.3 µM (inactive) | 17.4 µM (inactive) | 2.84 µM (inactive) | 5 µM (inactive) | 8.04 µM (inactive) | 11.7 µM (inactive) | 4.81 µM (inactive) | 4.25 µM (inactive) | > 100 µM (inactive) | 5.14 µM (inactive) | – | 26.5 µM (inactive) |
| N#CCc1nc2cc(C(F)(F)F)ccc2s1 | – | 10.7 µM (inactive) | 38.7 µM (inactive) | 56.4 µM (inactive) | – | 11.1 µM (inactive) | – | 26.7 µM (inactive) | 30.1 µM (inactive) | 29.4 µM (inactive) | 50.7 µM (inactive) | 37.7 µM (inactive) | – | 38.6 µM (inactive) | 51.8 µM (inactive) | 56 µM (inactive) | 18.3 µM (inactive) | 7.96 µM (inactive) | – |
| C/C(=C\c1ccccc1)C(=O)NCc1ccc(C(=O)NCCC(C)C)cc1 | – | 76.4 µM (inactive) | 86.7 µM (inactive) | > 100 µM (inactive) | 68.7 µM (inactive) | > 100 µM (inactive) | > 100 µM (inactive) | 65 µM (inactive) | 37.2 µM (inactive) | > 100 µM (inactive) | > 100 µM (inactive) | 41.8 µM (inactive) | > 100 µM (inactive) | > 100 µM (inactive) | 32.9 µM (inactive) | 55.6 µM (inactive) | > 100 µM (inactive) | > 100 µM (inactive) | > 100 µM (inactive) |
| O=C(N/N=C/c1ccc(Cl)cc1)c1ccccc1Nc1ccccc1C(=O)N/N=C/c1ccc(Cl)cc1 | > 100 µM (inactive) | > 100 µM (inactive) | > 100 µM (inactive) | > 100 µM (inactive) | > 100 µM (inactive) | – | > 100 µM (inactive) | > 100 µM (inactive) | > 100 µM (inactive) | > 100 µM (inactive) | > 100 µM (inactive) | > 100 µM (inactive) | > 100 µM (inactive) | > 100 µM (inactive) | – | > 100 µM (inactive) | > 100 µM (inactive) | > 100 µM (inactive) | > 100 µM (inactive) |
| CCOC(OCC)[C@H](N)[C@@H](O)[C@@H](O)[C@H]1COC(C)(C)O1 | > 100 µM (inactive) | > 100 µM (inactive) | > 100 µM (inactive) | > 100 µM (inactive) | > 100 µM (inactive) | – | > 100 µM (inactive) | > 100 µM (inactive) | > 100 µM (inactive) | > 100 µM (inactive) | > 100 µM (inactive) | > 100 µM (inactive) | > 100 µM (inactive) | > 100 µM (inactive) | – | > 100 µM (inactive) | > 100 µM (inactive) | > 100 µM (inactive) | > 100 µM (inactive) |
| CCOC(=O)c1c(NC(=O)c2ccc(Br)cc2)sc2c1CCCC2 | > 100 µM (inactive) | > 100 µM (inactive) | > 100 µM (inactive) | > 100 µM (inactive) | 97.1 µM (inactive) | – | > 100 µM (inactive) | > 100 µM (inactive) | > 100 µM (inactive) | > 100 µM (inactive) | > 100 µM (inactive) | > 100 µM (inactive) | > 100 µM (inactive) | – | > 100 µM (inactive) | > 100 µM (inactive) | > 100 µM (inactive) | > 100 µM (inactive) | > 100 µM (inactive) |
| Cc1ccc(S(=O)(=O)c2ccsc2NC(=O)C(F)(F)F)cc1 | – | 46.6 µM (inactive) | 70.8 µM (inactive) | 57.3 µM (inactive) | 62.8 µM (inactive) | 24.4 µM (inactive) | – | 28.6 µM (inactive) | 31.8 µM (inactive) | 8.02 µM (inactive) | 20.2 µM (inactive) | 35.8 µM (inactive) | 26.3 µM (inactive) | 20.6 µM (inactive) | 39.7 µM (inactive) | 39.2 µM (inactive) | 42.6 µM (inactive) | 18.5 µM (inactive) | 37.6 µM (inactive) |
